Laboratory results reported in patent US7772226B2, “Condensed imidazole derivatives” (Eisai R&D Management Co., Ltd., priority 2002, dated 2010).

What was measured:
male Wistar rats = experiment: Effect of a Test Compound on the Blood Glucose Level of Fasted Male Wistar Rats; type: in vivo; conditions: oral dose of 10-30 (mg/kg), 0.5, 1 and 3 hours after administration, compared with control group treated with the medium alone
Procedure: Purpose: Effect of a Test Compound on the Blood Glucose Level of Fasted Male Wistar Rats
Animal: male Wistar rats (purchased from Charles River Japan, Inc.)
A test compound was suspended in 0.5% methyl cellulose (MC) solution and administered orally at a dose of 5 mL/kg. The control group was treated with a 0.5% MC solution. The solution was administered orally at a dose of 5 mL/kg.
Immediately before administering a test compound or 0.5% MC solution, and 0.5, 1, and 3 hours after the administration, without anesthetic the caudal vein was lightly cut with a razor blade to let the blood out. 10 μL of blood was collected and combined with 140 μL of 0.6 M perchloric acid solution. The sample was centrifuged at 3000 g at 4° C. for 10 minutes and the resultant supernatant was assayed with the Glucose CII TEST WAKO (Wako Pure Chemical Industries).

male C57BL/6N mice = experiment: Acceptable Timing of Administration in In Vivo Test; conditions: oral; given simultaneously with vs one hour before glucose loading (2 g/kg); improvement factor for glucose tolerance compared
Procedure: Acceptable Timing of Administration in In Vivo Test
The respective tests described below were carried out in combination with the in vivo test (administration before 0.5 hour) as described in Assay Example 2:
1. A test compound is administered simultaneously with glucose loading (2 g/kg) (the test compound is suspended in an aqueous solution of 0.5% methyl cellulose; the solution is combined with an equal volume of a glucose solution; and the mixture is administered orally at a dose of 10 ml/kg);
2. A test compound is administered one hour before glucose loading (2 g/kg) (the test compound suspended in an aqueous solution of 0.5% methyl cellulose is administered orally one hour before the oral administration of the glucose solution; each is given orally at a dose of 10 ml/kg).
The improvement factor for glucose tolerance is estimated in each test.

[1] = target: T1, Porcine kidney-derived DPP-IV (Sus scrofa, UniProt P22411); experiment: DPPIV-inhibiting Activity Assay; type: biochemical; conditions: substrate Gly-Pro-p-nitroanilide 0.33 mM, absorbance at 405 nm
T1 construct: Porcine kidney-derived DPP-IV was dissolved in a reaction buffer; from tissue; host or cells: porcine kidney
T1 sequence (P22411 whole entry): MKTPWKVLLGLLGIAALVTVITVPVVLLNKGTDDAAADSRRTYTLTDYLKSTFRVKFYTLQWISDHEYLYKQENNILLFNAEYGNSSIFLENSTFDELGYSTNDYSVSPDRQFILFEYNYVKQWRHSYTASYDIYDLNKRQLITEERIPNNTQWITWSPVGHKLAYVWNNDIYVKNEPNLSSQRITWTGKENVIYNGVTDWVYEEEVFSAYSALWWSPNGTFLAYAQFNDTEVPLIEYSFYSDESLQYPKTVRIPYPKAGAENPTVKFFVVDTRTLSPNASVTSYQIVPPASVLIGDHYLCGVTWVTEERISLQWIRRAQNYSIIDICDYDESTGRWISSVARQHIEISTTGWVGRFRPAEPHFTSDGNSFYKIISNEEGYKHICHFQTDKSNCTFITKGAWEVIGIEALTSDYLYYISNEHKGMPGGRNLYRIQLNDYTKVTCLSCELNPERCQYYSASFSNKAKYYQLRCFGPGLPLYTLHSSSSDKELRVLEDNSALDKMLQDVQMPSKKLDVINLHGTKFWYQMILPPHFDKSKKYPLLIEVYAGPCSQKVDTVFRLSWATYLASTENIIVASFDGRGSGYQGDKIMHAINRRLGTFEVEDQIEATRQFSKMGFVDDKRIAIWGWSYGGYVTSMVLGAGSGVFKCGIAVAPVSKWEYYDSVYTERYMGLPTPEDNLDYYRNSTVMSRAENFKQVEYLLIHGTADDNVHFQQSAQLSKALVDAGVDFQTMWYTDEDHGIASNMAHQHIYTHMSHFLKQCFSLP
Procedure: DPPIV-inhibiting Activity Assay
Porcine kidney-derived DPP-IV was dissolved in a reaction buffer (50 mM Tris-HCl (pH 7.4)/0.1% BSA) at a concentration of […]. After 110 μl of this solution had been combined with 15 μl of an agent, the mixture was incubated at room temperature for 20 minutes. 25 μl of 2 mM Gly-Pro-p-nitroanilide was added (to a final concentration of 0.33 mM) to the solution to initiate the enzyme reaction. The reaction time was 20 minutes. 25 μl of 1N phosphoric acid solution was added to the reaction solution to quench the reaction.

Compound	change in the blood glucose level (male Wistar rats)	range of acceptable timing of administration (male C57BL/6N mice)	IC50 [1] [µM]
CC#CCn1c(N2CCNCC2)nc2cnn(Cc3ccccc3C#N)c(=O)c21.O=C(O)C(F)(F)F [Example 267, 2-[3-(2-Butynyl)-4-oxo-2-(piperazin-1-yl)-3,4-dihydroimidazo[4,5-d]pyridazin-5-ylmethyl]benzonitrile trifluoroacetate]	no significant change	sufficiently wide ranges of acceptable timing of administration	–
Methyl 2-[7-(2-butynyl)-1-methyl-6-oxo-8-(piperazin-1-yl)-6,7-dihydro-1H-purin-2-yloxy]phenylacetate trifluoroacetate [Example 4]	–	–	0.211
CC#CCn1c(N2CCNCC2)nc2nc(C#N)n(Cc3ccccc3C#N)c(=O)c21.Cl [Example 229, 7-(2-Butynyl)-1-(2-cyanobenzyl)-6-oxo-8-(piperazin-1-yl)-6,7-dihydro-1H-purine-2-carbonitrile hydrochloride]	no significant change	sufficiently wide ranges of acceptable timing of administration	–
CC#CCn1c(N2CCNCC2)nc2cnn(C)c(=O)c21 [Example 119, 3-(2-Butynyl)-5-methyl-2-(piperazin-1-yl)-3,5-dihydroimidazo[4,5-d]pyridazin-4-one]	no significant change	sufficiently wide ranges of acceptable timing of administration	–
CC#CCn1c(N2CCCC(N)C2)nc2cnn(C)c(=O)c21.O=C(O)C(F)(F)F (stereo not shown) [Example 120, 2-(3-Aminopiperidin-1-yl)-3-(2-butynyl)-5-methyl-3,5-dihydroimidazo[4,5-d]pyridazin-4-one trifluoroacetate]	no significant change	sufficiently wide ranges of acceptable timing of administration	–
CC#CCn1c(N2CCNCC2)nc2nc(C#N)n(C)c(=O)c21.O=C(O)C(F)(F)F [Example 82, 7-(2-Butynyl)-2-cyano-1-methyl-8-(piperazin-1-yl)-1,7-dihydropurin-6-one trifluoroacetate]	no significant change	sufficiently wide ranges of acceptable timing of administration	–
CC#CCn1c(N2CCNCC2)nc2nc(Oc3ccccc3C(N)=O)n(C)c(=O)c21 [Example 122, 2-[7-(2-Butynyl)-1-methyl-6-oxo-8-(piperazin-1-yl)-6,7-dihydro-1H-purin-2-yloxy]benzamide]	no significant change	sufficiently wide ranges of acceptable timing of administration	–
